Data reported in PubChem BioAssay AID2060624 (Molecular Pharmacology Branch, DTP, NCI, 2025).
Where “and” joins values, the source holds several entries; their conditions need not be identical. Equal values may be shown once.

Tested on: 217524-143-R1-J4-PDC spheroids with HUVEC/MSC, viability
Experiment: Anticancer human tumor 217524-143-R1-J4-PDC patient-derived pancreatic carcinoma cell line growth inhibition [CLK]
Settings: for viability, T/C: stronger effect = lower value
Method in brief: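 Patient-derived tumor cells grown as complex spheroids with HUVEC endothelial cells and mesenchymal stem cells, treated with drug combinations. Concentrations descend in half-log steps from near clinical Cmax, or from 10 microM if Cmax unknown.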

[1] = curve of first compound, second compound 0.0316 µM
[2] = curve of first compound, second compound 0.1 µM
[3] = curve of first compound, second compound 0.316 µM
[4] = curve of first compound, second compound 1 µM
[5] = curve of first compound, second compound 3.16 µM
[6] = curve of first compound, second compound 10 µM
[7] = second compound 0.0316 µM, first compound 0.0316 µM
[8] = second compound 0.0316 µM, first compound 0.1 µM
[9] = second compound 0.0316 µM, first compound 0.316 µM
[10] = second compound 0.0316 µM, first compound 1 µM
[11] = second compound 0.0316 µM, first compound 3.16 µM
[12] = second compound 0.0316 µM, first compound 10 µM
[13] = second compound 0.1 µM, first compound 0.0316 µM
[14] = second compound 0.1 µM, first compound 0.1 µM
[15] = second compound 0.1 µM, first compound 0.316 µM
[16] = second compound 0.1 µM, first compound 1 µM
[17] = second compound 0.1 µM, first compound 3.16 µM
[18] = second compound 0.1 µM, first compound 10 µM
[19] = second compound 0.316 µM, first compound 0.0316 µM
[20] = second compound 0.316 µM, first compound 0.1 µM
[21] = second compound 0.316 µM, first compound 0.316 µM
[22] = second compound 0.316 µM, first compound 1 µM
[23] = second compound 0.316 µM, first compound 3.16 µM
[24] = second compound 0.316 µM, first compound 10 µM
[25] = second compound 1 µM, first compound 0.0316 µM
[26] = second compound 1 µM, first compound 0.1 µM
[27] = second compound 1 µM, first compound 0.316 µM
[28] = second compound 1 µM, first compound 1 µM
[29] = second compound 1 µM, first compound 3.16 µM
[30] = second compound 1 µM, first compound 10 µM
[31] = second compound 3.16 µM, first compound 0.0316 µM
[32] = second compound 3.16 µM, first compound 0.1 µM
[33] = second compound 3.16 µM, first compound 0.316 µM
[34] = second compound 3.16 µM, first compound 1 µM
[35] = second compound 3.16 µM, first compound 3.16 µM
[36] = second compound 3.16 µM, first compound 10 µM
[37] = second compound 10 µM, first compound 0.0316 µM
[38] = second compound 10 µM, first compound 0.1 µM
[39] = second compound 10 µM, first compound 0.316 µM
[40] = second compound 10 µM, first compound 1 µM
[41] = second compound 10 µM, first compound 3.16 µM
[42] = second compound 10 µM, first compound 10 µM
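Further: spheroids exposed to agents for seven days before reading.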
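Wherever viability, T/C is given: 100% = DMSO vehicle control viability.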

SMILES: C=C(F)C(=O)N1CCN(c2nc(OCC3CCCN3C)nc3c2CCN(c2cccc4cccc(Cl)c24)C3)CC1CC#N (stereo not drawn) + CNC(=O)c1ccc(Nc2nc(OC3CCCC3)c3c(-c4ccc5nc(C)oc5c4)c[nH]c3n2)c(OC)c1
- IC50 [1]: 5260 nM
- IC50 [2]: < 31.6 nM
- IC50 [3]: < 31.6 nM
- IC50 [4]: < 31.6 nM
- IC50 [5]: < 31.6 nM
- IC50 [6]: < 31.6 nM
- viability, T/C [7]: 80.1%
- viability, T/C [8]: 77.7%
- viability, T/C [9]: 97.1%
- viability, T/C [10]: 85.7%
- viability, T/C [11]: 104%
- viability, T/C [12]: 0.48%
- viability, T/C [13]: 46.5%
- viability, T/C [14]: 43%
- viability, T/C [15]: 34.7%
- viability, T/C [16]: 45.3%
- viability, T/C [17]: 37.9%
- viability, T/C [18]: 0.82%
- viability, T/C [19]: 39.3%
- viability, T/C [20]: 42.9%
- viability, T/C [21]: 41.9%
- viability, T/C [22]: 28.2%
- viability, T/C [23]: 28.2%
- viability, T/C [24]: 1.22%
- viability, T/C [25]: 32.5%
- viability, T/C [26]: 33.8%
- viability, T/C [27]: 30.9%
- viability, T/C [28]: 23.4%
- viability, T/C [29]: 21.8%
- viability, T/C [30]: 0.35%
- viability, T/C [31]: 27.8%
- viability, T/C [32]: 40.8%
- viability, T/C [33]: 25.6%
- viability, T/C [34]: 23.8%
- viability, T/C [35]: 19.6%
- viability, T/C [36]: 0.34%
- viability, T/C [37]: 26.5%
- viability, T/C [38]: 22.6%
- viability, T/C [39]: 27.6%
- viability, T/C [40]: 25.4%
- viability, T/C [41]: 18.5%
- viability, T/C [42]: 0.42%

SMILES: C=CC(=O)N1CCN(c2nc(=O)n(-c3c(C)ccnc3C(C)C)c3nc(-c4c(O)cccc4F)c(F)cc23)C(C)C1 (stereo not drawn) + CNC(=O)c1ccc(Nc2nc(OC3CCCC3)c3c(-c4ccc5nc(C)oc5c4)c[nH]c3n2)c(OC)c1
- IC50 [1]: > 10000 nM
- IC50 [2]: < 31.6 nM
- IC50 [3]: < 31.6 nM
- IC50 [4]: < 31.6 nM
- IC50 [5]: < 31.6 nM
- IC50 [6]: < 31.6 nM
- viability, T/C [7]: 99.7%
- viability, T/C [8]: 96.5%
- viability, T/C [9]: 82.2%
- viability, T/C [10]: 102%
- viability, T/C [11]: 123%
- viability, T/C [12]: 118%
- viability, T/C [13]: 44.1%
- viability, T/C [14]: 47.4%
- viability, T/C [15]: 41.4%
- viability, T/C [16]: 49.9%
- viability, T/C [17]: 58.5%
- viability, T/C [18]: 55.8%
- viability, T/C [19]: 34.6%
- viability, T/C [20]: 31.3%
- viability, T/C [21]: 50.8%
- viability, T/C [22]: 41.4%
- viability, T/C [23]: 49%
- viability, T/C [24]: 43.4%
- viability, T/C [25]: 24.7%
- viability, T/C [26]: 27.6%
- viability, T/C [27]: 32.8%
- viability, T/C [28]: 39.2%
- viability, T/C [29]: 36.4%
- viability, T/C [30]: 30%
- viability, T/C [31]: 24.9%
- viability, T/C [32]: 29.8%
- viability, T/C [33]: 31%
- viability, T/C [34]: 30.2%
- viability, T/C [35]: 36.8%
- viability, T/C [36]: 27.9%
- viability, T/C [37]: 27.9%
- viability, T/C [38]: 27.9%
- viability, T/C [39]: 31.7%
- viability, T/C [40]: 31.9%
- viability, T/C [41]: 34.2%
- viability, T/C [42]: 29.1%

SMILES: O=C(c1cc(Cc2n[nH]c(=O)c3ccccc23)ccc1F)N1CCN(C(=O)C2CC2)CC1 + CNC(=O)c1ccc(Nc2nc(OC3CCCC3)c3c(-c4ccc5nc(C)oc5c4)c[nH]c3n2)c(OC)c1
- IC50 [1]: > 10000 nM
- IC50 [2]: < 31.6 nM
- IC50 [3]: < 31.6 nM
- IC50 [4]: < 31.6 nM
- IC50 [5]: < 31.6 nM
- IC50 [6]: < 31.6 nM
- viability, T/C [7]: 83.2%
- viability, T/C [8]: 82.8%
- viability, T/C [9]: 95.6%
- viability, T/C [10]: 115%
- viability, T/C [11]: 109%
- viability, T/C [12]: 78.5%
- viability, T/C [13]: 44.3%
- viability, T/C [14]: 40.1%
- viability, T/C [15]: 45.6%
- viability, T/C [16]: 44.1%
- viability, T/C [17]: 46.2%
- viability, T/C [18]: 46.3%
- viability, T/C [19]: 37.4%
- viability, T/C [20]: 42.7%
- viability, T/C [21]: 35.4%
- viability, T/C [22]: 36.1%
- viability, T/C [23]: 38.7%
- viability, T/C [24]: 51.8%
- viability, T/C [25]: 29.4%
- viability, T/C [26]: 30.1%
- viability, T/C [27]: 28%
- viability, T/C [28]: 32.3%
- viability, T/C [29]: 24.2%
- viability, T/C [30]: 25.6%
- viability, T/C [31]: 27%
- viability, T/C [32]: 23.7%
- viability, T/C [33]: 27.8%
- viability, T/C [34]: 26.5%
- viability, T/C [35]: 28.4%
- viability, T/C [36]: 29.4%
- viability, T/C [37]: 24.7%
- viability, T/C [38]: 29.3%
- viability, T/C [39]: 23.4%
- viability, T/C [40]: 24.6%
- viability, T/C [41]: 30.7%
- viability, T/C [42]: 24.7%

SMILES: Cn1ncnc1[C@H]1c2n[nH]c(=O)c3cc(F)cc(c23)N[C@@H]1c1ccc(F)cc1
- viability, T/C (compound 0.000316 µM): 101% and 96.4%
- viability, T/C (compound 0.001 µM): 93.3% and 90.1%
- viability, T/C (compound 0.00316 µM): 103% and 102%
- viability, T/C (compound 0.01 µM): 85.5% and 93.6%
- viability, T/C (compound 0.0316 µM): 113% and 106%
- viability, T/C (compound 0.1 µM): 102% and 83.5%
- IC50 (curve of compound): > 100 nM
